{"source": "patent US20170347651A1", "about": "“ACTIVE COMPOUND COMBINATIONS COMPRISING A (THIO)CARBOXAMIDE DERIVATIVE AND FUNGICIDAL COMPOUND(S)” (Bayer CropScience Aktiengesellschaft, priority 2014, published 2017)", "key": {"Septoria tritici": {"test_system": "Septoria tritici", "assay": "in vivo preventive Septoria tritici test (wheat)", "settings": "21 days after inoculation", "procedure": "(§1) To produce a suitable preparation of active compound, 1 part by weight of active compound or active compound combination is mixed with the stated amounts of solvent and emulsifier, and the concentrate is diluted with water to the desired concentration.\nTo test for preventive activity, young plants are sprayed with the preparation of active compound or active compound combination at the stated rate of application.\nAfter the spray coating has been dried, the plants are sprayed with a spore suspension of Septoria tritici.\nThe plants remain for 48 hours in an incubation cabinet at approximately 20° C. and a relative atmospheric humidity of approximately 100% and afterwards for 60 hours at approximately 15° C. in a translucent incubation cabinet at a relative atmospheric humidity of approximately 100%.\nThe plants are placed in the greenhouse at a temperature of approximately 15° C. and a relative atmospheric humidity of approximately 80%.\nThe test is evaluated 21 days after the inoculation. 0% means an efficacy which corresponds to that of the untreated control, while an efficacy of 100% means that no disease is observed."}, "Puccinia triticina": {"test_system": "Puccinia triticina", "assay": "in vivo preventive Puccinia triticina test (wheat)", "settings": "8 days after inoculation", "procedure": "as §1\nTo test for preventive activity, young plants are sprayed with the preparation of active compound or active compound combination at the stated rate of application. After the spray coating has been dried, the plants are sprayed with a spore suspension of Puccinia triticina. The plants remain for 48 hours in an incubation cabinet at approximately 20° C. and a relative atmospheric humidity of approximately 100%. The plants are placed in the greenhouse at a temperature of approximately 20° C. and a relative atmospheric humidity of approximately 80%.\n(§2) The test is evaluated 8 days after the inoculation. 0% means an efficacy which corresponds to that of the untreated control, while an efficacy of 100% means that no disease is observed."}, "Leptosphaeria nodorum": {"test_system": "Leptosphaeria nodorum", "assay": "in vivo preventive Leptosphaeria nodorum test (wheat)", "settings": "8 days after inoculation", "procedure": "as §1\nTo test for preventive activity, young plants are sprayed with the preparation of active compound or active compound combination at the stated rate of application. After the spray coating has been dried, the plants are sprayed with a spore suspension of Leptosphaeria nodorum. The plants remain for 48 hours in an incubation cabinet at approximately 20° C. and a relative atmospheric humidity of approximately 100%. The plants are placed in the greenhouse at a temperature of approximately 25° C. and a relative atmospheric humidity of approximately 80%.\nas §2"}, "Pyrenophora teres": {"test_system": "Pyrenophora teres", "assay": "in vivo preventive Pyrenophora teres test (barley)", "settings": "8 days after inoculation", "procedure": "as §1\nTo test for preventive activity, young plants are sprayed with the preparation of active compound or active compound combination at the stated rate of application. After the spray coating has been dried, the plants are sprayed with a spore suspension of Pyrenophora teres. The plants remain for 48 hours in an incubation cabinet at approximately 20° C. and a relative atmospheric humidity of approximately 100%. The plants are placed in the greenhouse at a temperature of approximately 20° C. and a relative atmospheric humidity of approximately 80%.\nas §2"}}, "data": [{"smiles": "CC(C)c1ccc(Cl)cc1CN(C(=O)c1c(C(F)F)nn(C)c1F)C1CC1", "note": "[A5, N-(5-chloro-2-isopropylbenzyl)-N-cyclopropyl-3-(difluoromethyl)-5-fluoro-1-methyl-1H-pyrazole-4-carboxamide]", "values": [{"measurement": "Efficacy in % found", "setting": "Septoria tritici; Table A1, wheat, 20 ppm a.i.", "result": 10, "unit": "%"}, {"measurement": "Efficacy in % found", "setting": "Septoria tritici; Table A2, wheat, 15 ppm a.i.", "result": 30, "unit": "%"}, {"measurement": "Efficacy in % found", "setting": "Septoria tritici; Table A2, wheat, 30 ppm a.i.", "result": 50, "unit": "%"}, {"measurement": "Efficacy in % found", "setting": "Puccinia triticina; 7.5 ppm a.i.", "result": 30, "unit": "%"}, {"measurement": "Efficacy in % found", "setting": "Puccinia triticina; 15 ppm a.i.", "result": 50, "unit": "%"}, {"measurement": "Efficacy in % found", "setting": "Puccinia triticina; 30 ppm a.i.", "result": 70, "unit": "%"}, {"measurement": "Efficacy in % found", "setting": "Leptosphaeria nodorum; 6.25 ppm a.i.", "result": 17, "unit": "%"}, {"measurement": "Efficacy in % found", "setting": "Leptosphaeria nodorum; 12.5 ppm a.i.", "result": 33, "unit": "%"}, {"measurement": "Efficacy in % found", "setting": "Pyrenophora teres; 25 ppm a.i.", "result": 71, "unit": "%"}]}, {"smiles": "O=C(NCCc1ncc(C(F)(F)F)cc1Cl)c1ccccc1C(F)(F)F", "note": "[fluopyram]", "values": [{"measurement": "Efficacy in % found", "setting": "Septoria tritici; Table A2, wheat, 45 ppm a.i.", "result": 40, "unit": "%"}, {"measurement": "Efficacy in % found", "setting": "Puccinia triticina; 45 ppm a.i.", "result": 0, "unit": "%"}, {"measurement": "Efficacy in % found", "setting": "Leptosphaeria nodorum; 9.375 ppm a.i.", "result": 0, "unit": "%"}, {"measurement": "Efficacy in % found", "setting": "Pyrenophora teres; 37.5 ppm a.i.", "result": 43, "unit": "%"}]}, {"smiles": "OC(Cc1ccccc1Cl)(Cn1nc[nH]c1=S)C1(Cl)CC1", "note": "(stereo not drawn) [prothioconazole]", "values": [{"measurement": "Efficacy in % found", "setting": "Septoria tritici; Table A1, wheat, 200 ppm a.i.", "result": 30, "unit": "%"}, {"measurement": "Efficacy in % found", "setting": "Septoria tritici; Table A2, wheat, 60 ppm a.i.", "result": 40, "unit": "%"}, {"measurement": "Efficacy in % found", "setting": "Septoria tritici; Table A2, wheat, 90 ppm a.i.", "result": 20, "unit": "%"}, {"measurement": "Efficacy in % found", "setting": "Puccinia triticina; 30 ppm a.i.", "result": 0, "unit": "%"}, {"measurement": "Efficacy in % found", "setting": "Puccinia triticina; 90 ppm a.i.", "result": 20, "unit": "%"}, {"measurement": "Efficacy in % found", "setting": "Leptosphaeria nodorum; 18.75 ppm a.i.", "result": 0, "unit": "%"}, {"measurement": "Efficacy in % found", "setting": "Leptosphaeria nodorum; 25 ppm a.i.", "result": 0, "unit": "%"}, {"measurement": "Efficacy in % found", "setting": "Pyrenophora teres; 50 ppm a.i.", "result": 0, "unit": "%"}, {"measurement": "Efficacy in % found", "setting": "Pyrenophora teres; 75 ppm a.i.", "result": 0, "unit": "%"}]}, {"smiles": "CC(C)(C)C(O)(CCc1ccc(Cl)cc1)Cn1cncn1", "note": "(stereo not drawn) [tebuconazole]", "values": [{"measurement": "Efficacy in % found", "setting": "Septoria tritici; Table A2, wheat, 60 ppm a.i.", "result": 20, "unit": "%"}, {"measurement": "Efficacy in % found", "setting": "Puccinia triticina; 30 ppm a.i.", "result": 30, "unit": "%"}, {"measurement": "Efficacy in % found", "setting": "Leptosphaeria nodorum; 25 ppm a.i.", "result": 0, "unit": "%"}, {"measurement": "Efficacy in % found", "setting": "Pyrenophora teres; 50 ppm a.i.", "result": 0, "unit": "%"}]}, {"smiles": "CON=C(C(=O)OC)c1ccccc1CON=C(C)c1cccc(C(F)(F)F)c1", "note": "[trifloxystrobin]", "values": [{"measurement": "Efficacy in % found", "setting": "Septoria tritici; Table A1, wheat, 20 ppm a.i.", "result": 30, "unit": "%"}]}]}
